Measured values: ChEMBL document CHEMBL2434845, “Design, synthesis and efficacy of novel G protein-coupled receptor kinase 2 inhibitors” (Eur J Med Chem, 2013)
Activity calls are given as the source filed them. The rule behind the calls is not given here. Peptide text beside a SMILES is read from it.

Experiments:
[1] = target: T1, Beta-adrenergic receptor kinase 1 (Homo sapiens) (UniProt P25098); assay: Inhibition of GRK-2 (unknown origin)-mediated phosphorylation of rhodopsin in bovine-rod outer segment membranes at 1 uM incubated under white light condition for 15 mins measured after 30 mins by autoradiography in presence of [gamma32P]-ATP; assay type: cell membranes
T1 sequence (whole entry): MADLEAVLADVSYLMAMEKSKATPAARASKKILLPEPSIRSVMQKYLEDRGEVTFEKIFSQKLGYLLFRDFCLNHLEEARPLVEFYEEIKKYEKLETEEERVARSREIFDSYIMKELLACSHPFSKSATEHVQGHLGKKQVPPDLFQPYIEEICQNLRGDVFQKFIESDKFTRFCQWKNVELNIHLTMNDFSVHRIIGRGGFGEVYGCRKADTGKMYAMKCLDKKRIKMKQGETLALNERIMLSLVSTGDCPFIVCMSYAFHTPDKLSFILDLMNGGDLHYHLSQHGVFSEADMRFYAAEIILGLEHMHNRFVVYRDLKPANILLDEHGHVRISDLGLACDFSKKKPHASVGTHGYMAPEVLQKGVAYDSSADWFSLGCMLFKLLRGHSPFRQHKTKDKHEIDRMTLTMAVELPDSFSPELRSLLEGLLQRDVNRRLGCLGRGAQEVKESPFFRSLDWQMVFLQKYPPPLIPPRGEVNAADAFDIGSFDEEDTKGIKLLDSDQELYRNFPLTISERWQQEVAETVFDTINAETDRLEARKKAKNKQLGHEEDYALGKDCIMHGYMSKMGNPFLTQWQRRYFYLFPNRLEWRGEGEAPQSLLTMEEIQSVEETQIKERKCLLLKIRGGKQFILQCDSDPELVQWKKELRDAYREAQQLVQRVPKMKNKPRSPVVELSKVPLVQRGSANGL

[2] = target: G protein-coupled receptor kinase 5 (Homo sapiens) (UniProt P34947); assay: Inhibition of GRK-5 (unknown origin)-mediated phosphorylation of rhodopsin in bovine-rod outer segment membranes incubated under white light condition for 15 mins measured after 30 mins by autoradiography in presence of [gamma32P]-ATP; assay type: cell membranes; parameters: concentration or dose not given beside the values
[3] = target: T1, Beta-adrenergic receptor kinase 1 (Homo sapiens); assay: (§1) Inhibition of GRK-2 (unknown origin)-mediated phosphorylation of rhodopsin in bovine-rod outer segment membranes incubated under white light condition for 15 mins measured after 30 mins by autoradiography in presence of [gamma32P]-ATP; assay type: cell membranes
[4] = target: T1, Beta-adrenergic receptor kinase 1 (Homo sapiens); assay: Inhibition of GRK2 in HEK293 cells overexpressing human beta2 adrenergic receptor assessed as increase in beta2 adrenergic receptor density at 1 uM after 1 hr by gamma counting analysis in presence of [125I]cyanopindolol; assay type: cell-based
[5] = target: T1, Beta-adrenergic receptor kinase 1 (Homo sapiens); assay: Inhibition of GRK2 in HEK293 cells overexpressing human beta2 adrenergic receptor assessed as effect on isoproterenol-induced cAMP production at 1 uM preincubated for 1 hr prior to isoproterenol-stimulation measured after 15 mins by enzyme immunoassay; assay type: cell-based
[6] = target: T1, Beta-adrenergic receptor kinase 1 (Homo sapiens); assay: Inhibition of GRK2 in HEK293 cells overexpressing human beta2 adrenergic receptor assessed as effect on cAMP production at 1 uM after 1 hr by enzyme immunoassay; assay type: cell-based
[7] = target: T2, Beta-adrenergic receptor kinase 1 (Homo sapiens, UniProt P25098); assay: as §1; assay type: cell membranes
T2 sequence (P25098 whole entry): T1 sequence (whole entry)

HEK293 [8] = assay: Cellular uptake in HEK293 cells overexpressing human beta2 adrenergic receptor at 1 uM after 1 hr by confocal microscopic analysis; assay type: ADME, cell-based; conditions: hek293, 1 h
HEK293 [9] = assay: Cellular uptake in HEK293 cells overexpressing human beta2 adrenergic receptor at 1 to 10 uM after 1 hr by fluorescence assay; assay type: ADME, cell-based; conditions: hek293, 1 h

G protein-coupled receptor kinase 5 (Homo sapiens), sequence (P34947 whole entry, looked up): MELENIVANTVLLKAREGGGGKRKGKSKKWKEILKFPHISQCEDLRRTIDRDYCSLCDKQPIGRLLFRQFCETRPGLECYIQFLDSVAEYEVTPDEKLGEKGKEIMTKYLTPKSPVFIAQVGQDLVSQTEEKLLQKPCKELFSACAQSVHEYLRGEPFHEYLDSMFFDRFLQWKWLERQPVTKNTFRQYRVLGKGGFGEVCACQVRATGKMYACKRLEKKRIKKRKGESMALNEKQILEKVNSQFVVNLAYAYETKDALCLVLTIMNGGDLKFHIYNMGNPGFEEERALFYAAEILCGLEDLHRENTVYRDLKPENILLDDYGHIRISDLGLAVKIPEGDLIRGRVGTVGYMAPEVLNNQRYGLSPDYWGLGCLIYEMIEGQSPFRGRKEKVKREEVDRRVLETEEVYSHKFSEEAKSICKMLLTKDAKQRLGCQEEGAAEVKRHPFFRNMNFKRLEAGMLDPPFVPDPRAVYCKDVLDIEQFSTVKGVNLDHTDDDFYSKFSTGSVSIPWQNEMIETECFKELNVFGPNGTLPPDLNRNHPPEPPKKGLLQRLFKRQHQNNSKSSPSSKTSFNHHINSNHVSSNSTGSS

Row | inhibition [1] [%] | inhibition [2] [%] | SMILES | other results
1 | 37.2 | < 5 | CC[C@H](C)[C@@H]1NC(=O)[C@H](CO)NC(=O)[C@H](Cc2cnc[nH]2)NC(=O)[C@@H](CCCNC(=N)N)NC(=O)[C@H](CCCNC(=N)N)NC(=O)[C@H](CC(C)C)NC(=O)[C@H](CC(C)C)NC(=O)CNC1=O | 
2 | 36.3 | < 5 | CC(C)C[C@@H]1NC(=O)[C@H](CCCCN)NC(=O)[C@H](CC(=O)O)NC(=O)[C@H](Cc2cnc[nH]2)NC(=O)[C@@H](CCCNC(=N)N)NC(=O)[C@H](CCCNC(=N)N)NC(=O)[C@H](CC(C)C)NC1=O | 
3 | 49.6 | < 5 | CC[C@H](C)[C@H](NC(=O)[C@H](CO)NC(=O)[C@H](Cc1cnc[nH]1)NC(=O)[C@@H](CCCNC(=N)N)NC(=O)[C@H](CCCNC(=N)N)NC(=O)[C@H](CC(C)C)NC(=O)[C@H](CC(C)C)NC(=O)CN)C(=O)O | inhibition [3]: Dose-dependent effect; inhibition [4]: Active; inhibition [5]: Active; inhibition [6]: Active
4 | 47.8 | < 5 | CC(C)C[C@@H]1NC(=O)CNC(=O)[C@H](CO)NC(=O)[C@H](Cc2cnc[nH]2)NC(=O)[C@@H](CCCNC(=N)N)NC(=O)[C@H](CCCNC(=N)N)NC(=O)[C@H](CC(C)C)NC1=O | 
5 | 47.6 | < 5 | CC(C)C[C@H](NC(=O)CN)C(=O)N[C@@H](CC(C)C)C(=O)N[C@@H](CCCNC(=N)N)C(=O)N[C@H](CCCNC(=N)N)C(=O)N[C@@H](Cc1cnc[nH]1)C(=O)N[C@@H](CO)C(=O)O | 
6 | 47.2 | < 5 | CC(C)C[C@@H]1NC(=O)[C@H](CC(C)C)NC(=O)[C@H](CCCCN)NC(=O)[C@H](CC(=O)O)NC(=O)[C@H](Cc2cnc[nH]2)NC(=O)CNC(=O)[C@H](CCCNC(=N)N)NC1=O (cyclo(DKLLRGH)) | 
7 |  |  | CC[C@H](C)[C@H](NC(=O)[C@H](CO)NC(=O)[C@H](Cc1cnc[nH]1)NC(=O)[C@@H](CCCN=C(N)N)NC(=O)[C@H](CCCN=C(N)N)NC(=O)[C@H](CC(C)C)NC(=O)[C@H](CC(C)C)NC(=O)CN)C(=O)O | IC50 [7]: 340 nM; Drug uptake (HEK293 [8]): Active; Drug uptake (HEK293 [9]): Active
